What was measured:
[1] = test system: rat; assay: LD50, i.v., rat; assay type: in vivo; conditions: meglumine salt solutions 180 mg iodine per ml, 0.8 ml/minute
Method: (1) The contrast media were injected in the form of meglumine salt
solutions of 180 mg of iodine per ml at a rate of 0.8 ml/minute into male

[2] = test system: rat; assay: ED50 rat, intracisternal; assay type: in vivo; conditions: 200-250 g rat, diluted with 3% mannite solution
Method: (§1) least 4 doses were tested on 10 animals. The effectiveness criteria used
(§2) are the states of excitation, grave behavioral anomalies, coma and death
(§3) over the period of 24 h.
(3) With the test equipment essentially the same ss in (2), 200-250 g rat
are injected with contrast media in the cisterna suboccipitalis. The
contrast media were diluted with a 3% mannite solution to adjust the […]

[3] = distribution coefficient butanol/water, pH 7.4; assay type: physicochemical; conditions: meglumine salts
Description: By providing the compounds of this invention wherein only one of the two 5,5',-position hydrogen atoms is substituted, new contrast-producing substances are obtained. […] This can be shown by comparing the values of protein binding, compatibility, biliary and renal excretion of the meglumine salts of the conventional agent iodipamide (B) and an agent of this invention, hexane-diacid-1-(3-carboxy-2,4,6-triiodo-anilide)-6-(3-carboxy-5-N-methyl- carbamoyl-2,4,6-triido-anilide) (A).

[4] = test system: rat; assay: ED50 rat, pericerebrally (excitation, grave behavioral anomalies, coma and death over 24 h); assay type: in vivo; conditions: pericerebral (intracerebral) injection, 0.4 ml, rats about 100 g
Method: (2) Male and female rats of about 100 g in weight were injected
intracerebrally between the cheekbone and the occiputal bone through a
natural bone hole of the cranium while being slightly anesthesized with
ether. 0.4 ml injections of contrast media solutions of various
concentrations were used according to the method of Valzelli. The
injection was carried out with a Hamilton syringe 710 N for which the
penetration depth is limited to 10 mm. Depending on the preparation, at
as §1, §2, §3

[5] = test system: liver parenchyma; conditions: cited from earlier work
[6] = test system: liver parenchyma; conditions: cited from earlier work; remark: listed apart in the source
[7] = test system: dog liver; assay: computer tomography: maximum enrichment of contrast medium in dog liver; assay type: in vivo, dog (beagle); conditions: 360 mg I/kg, intravenous, meglumine salt solutions 180 mg of I/ml, beagles
Description: The extraordinarily pronounced enrichment of the compounds of this invention is shown in Table 2 listing the maximal enrichment in the liver following intravenous administration of the meglumine salt solutions of the prior art iosefamic acid (D) and of a compound of this invention, 3-oxapentane-diacid-1-([…]-2,4,6-triiodo-N-methylanilide)-5-(3-carboxy-5-N-methylcarbamoyl-2,4,6-triiodo-anilide) (E).
The values were obtained from healthy male and female beagles (Schering, breeder) with weights of 9-14 kg. The meglumine salt solutions contained 180 mg of I/ml.
The investigation of the x-ray density of the liver before administration of the contrast media and every 5 minutes up to 90 minutes thereafter was carried out using a full-body scanner of the EMI CT 5005/12 type, which operates on the basis of the rotation-translation principle. The scanning time was 20 seconds, the tube voltage 120 kv. For an image matrix of 320×320 elements, the standard deviation from the mean value of a normalized water phantom was 1.6% (i.e., +/-8 EU=EMI units). The computer tomograms were analyzed always on the same liver area by means of the analyzer "IVC" of the EMI Co.

| Structure (SMILES) | LD50, i.v., rat [1] | rat, intracisternal ED50 [2] | distribution coefficient, butanol/water, pH 7.4 [3] | rat, pericerebrally ED50 [4] | liver concentration for diagnosis improvement, humans [5] | liver concentration for diagnosis improvement, dog [6] | Maximum enrichment in dog liver [7] [EMI units] | time of maximum enrichment in dog liver (min. p. appl.) [7] [min. p. appl.] |
| --- | --- | --- | --- | --- | --- | --- | --- | --- |
| O=C(CCCCC(=O)Nc1c(I)cc(I)c(C(=O)O)c1I)Nc1c(I)cc(I)c(C(=O)O)c1I [B, iodipamide] | 2.6 g of I/kg | 1.07 (0.54-1.83) mg of I per kg | 0.278 +/- 0.008 | 6.35 (5.11-7.44) mg of I/kg | – | – | – | – |
| CNC(=O)c1c(I)c(NC(=O)CCCCC(=O)Nc2c(I)cc(I)c(C(=O)O)c2I)c(I)c(C(=O)O)c1I [Compound A, Hexane-diacid-1-(3-carboxy-2,4,6-triiodo-anilide)-6-(3-carboxy-5-N-methylcarbamoyl-2,4,6-triiodo-anilide)] | 5.5 g of I/kg | 15.6 (11.5-21.1) mg of I per kg | 0.083 +/- 0.001 | 17.1 (11.8-23.6) mg of I/kg | – | – | – | – |
| CNC(=O)c1c(I)c(NC(=O)CCCCCCCCC(=O)Nc2c(I)c(C(=O)O)c(I)c(C(=O)NC)c2I)c(I)c(C(=O)O)c1I [D, iosefamic acid] | – | – | – | – | not in humans | still adequate liver concentration for diagnosis improvement in the dog | 22.8 | 80 |
| CNC(=O)c1c(I)c(NC(=O)COCC(=O)N(C)c2c(I)cc(I)c(C(=O)O)c2I)c(I)c(C(=O)O)c1I [E, 3-oxapentane-diacid-1-(3-carboxy-2,4,6-triiodo-N-methylanilide)-5-(3-carboxy-5-N-methylcarbamoyl-2,4,6-triiodo-anilide)] | – | – | – | – | – | – | – | 90 |

Reference: patent US4395391A, “Unsymmetrically substituted dicarboxylic-acid-bis-(2,4,6-triiodo-anilides), their preparation, and x-ray contrast media containing same” (priority 1980, dated 1983)
